Where two headings read alike, the source gives them in different places.
Tests used:
Type in all cases: biochemical
[1] = target: 320 wild-type protein kinases (Homo sapiens, UniProt P49761); settings: singlicate
Text: (§1) Table S4. Profiling of two compounds at two concentrations against 320 wild-type protein kinases; singlicate measurement; Residual activities (% of control).

[2] = target: 320 wild-type protein kinases (Homo sapiens, UniProt P09619); settings: PDGFR-beta, singlicate
Text: as §1

[3] = target: T1, 320 wild-type protein kinases (Homo sapiens, UniProt Q9NWZ3); settings: IRAK4 (untagged), singlicate
T1 sequence (Q9NWZ3 1-460): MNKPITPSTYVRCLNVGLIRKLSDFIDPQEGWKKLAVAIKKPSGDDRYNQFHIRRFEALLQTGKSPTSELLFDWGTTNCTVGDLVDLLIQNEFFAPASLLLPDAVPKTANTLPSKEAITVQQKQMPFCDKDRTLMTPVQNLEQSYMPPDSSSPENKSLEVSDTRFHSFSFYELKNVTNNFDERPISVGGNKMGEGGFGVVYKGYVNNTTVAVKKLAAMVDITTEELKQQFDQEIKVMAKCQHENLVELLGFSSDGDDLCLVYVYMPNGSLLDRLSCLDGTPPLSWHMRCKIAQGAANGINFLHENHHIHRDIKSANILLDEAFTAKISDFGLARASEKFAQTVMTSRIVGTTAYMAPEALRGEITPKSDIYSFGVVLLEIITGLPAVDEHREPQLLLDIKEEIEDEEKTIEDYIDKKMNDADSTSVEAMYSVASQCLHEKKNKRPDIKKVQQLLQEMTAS
Text: as §1

[4] = target: 320 wild-type protein kinases (Homo sapiens, UniProt Q16584); settings: singlicate
Text: as §1

[5] = target: T2, 320 wild-type protein kinases (Homo sapiens, UniProt P51955); settings: singlicate
T2 sequence (P51955 1-445): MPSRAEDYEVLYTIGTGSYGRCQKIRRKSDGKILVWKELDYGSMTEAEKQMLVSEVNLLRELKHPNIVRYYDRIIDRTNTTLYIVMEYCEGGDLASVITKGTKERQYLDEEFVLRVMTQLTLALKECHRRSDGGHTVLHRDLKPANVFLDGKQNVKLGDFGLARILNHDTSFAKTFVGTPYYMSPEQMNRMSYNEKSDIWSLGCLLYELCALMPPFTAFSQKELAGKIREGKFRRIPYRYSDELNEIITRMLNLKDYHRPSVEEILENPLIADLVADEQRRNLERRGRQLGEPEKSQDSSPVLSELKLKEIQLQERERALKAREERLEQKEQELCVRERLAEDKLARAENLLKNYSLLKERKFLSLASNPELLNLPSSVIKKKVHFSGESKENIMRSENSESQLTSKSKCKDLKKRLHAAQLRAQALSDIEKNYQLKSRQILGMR
Text: as §1

[6] = target: 320 wild-type protein kinases (Homo sapiens, UniProt Q13705); settings: ACV-R2B, singlicate
Text: as §1

[7] = target: 320 wild-type protein kinases (Homo sapiens, UniProt P30291); settings: kinase WEE1, singlicate
Text: as §1

[8] = target: 320 wild-type protein kinases (Homo sapiens, UniProt P50613); settings: singlicate
Text: as §1

[9] = target: 320 wild-type protein kinases (Homo sapiens, UniProt Q9NYL2); settings: kinase ZAK, singlicate
Text: as §1

[10] = target: T3, 320 wild-type protein kinases (Homo sapiens, UniProt Q9UKI8); settings: kinase TLK1, singlicate
T3 sequence (Q9UKI8 1-766): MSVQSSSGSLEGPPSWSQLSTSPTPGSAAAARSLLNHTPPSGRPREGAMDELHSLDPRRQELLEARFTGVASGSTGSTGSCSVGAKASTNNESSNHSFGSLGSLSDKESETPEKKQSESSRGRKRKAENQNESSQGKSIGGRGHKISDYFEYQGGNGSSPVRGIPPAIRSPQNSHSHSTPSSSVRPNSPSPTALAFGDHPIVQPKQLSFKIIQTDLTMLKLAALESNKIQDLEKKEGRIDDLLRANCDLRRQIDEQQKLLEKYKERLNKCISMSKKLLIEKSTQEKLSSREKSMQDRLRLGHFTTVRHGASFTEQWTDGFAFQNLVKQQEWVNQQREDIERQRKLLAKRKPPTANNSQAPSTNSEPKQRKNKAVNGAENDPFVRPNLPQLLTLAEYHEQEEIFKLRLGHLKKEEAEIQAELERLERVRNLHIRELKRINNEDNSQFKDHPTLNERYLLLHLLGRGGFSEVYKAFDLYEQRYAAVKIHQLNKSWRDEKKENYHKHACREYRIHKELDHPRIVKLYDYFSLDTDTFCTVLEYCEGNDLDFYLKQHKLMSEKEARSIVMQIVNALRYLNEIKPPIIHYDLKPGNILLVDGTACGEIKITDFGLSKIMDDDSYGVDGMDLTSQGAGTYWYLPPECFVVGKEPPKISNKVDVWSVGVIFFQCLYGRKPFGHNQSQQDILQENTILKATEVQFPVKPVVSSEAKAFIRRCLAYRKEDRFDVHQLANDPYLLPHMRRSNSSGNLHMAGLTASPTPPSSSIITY
Text: as §1

320 wild-type protein kinases (Homo sapiens, UniProt P09619), sequence (P09619 33-1106): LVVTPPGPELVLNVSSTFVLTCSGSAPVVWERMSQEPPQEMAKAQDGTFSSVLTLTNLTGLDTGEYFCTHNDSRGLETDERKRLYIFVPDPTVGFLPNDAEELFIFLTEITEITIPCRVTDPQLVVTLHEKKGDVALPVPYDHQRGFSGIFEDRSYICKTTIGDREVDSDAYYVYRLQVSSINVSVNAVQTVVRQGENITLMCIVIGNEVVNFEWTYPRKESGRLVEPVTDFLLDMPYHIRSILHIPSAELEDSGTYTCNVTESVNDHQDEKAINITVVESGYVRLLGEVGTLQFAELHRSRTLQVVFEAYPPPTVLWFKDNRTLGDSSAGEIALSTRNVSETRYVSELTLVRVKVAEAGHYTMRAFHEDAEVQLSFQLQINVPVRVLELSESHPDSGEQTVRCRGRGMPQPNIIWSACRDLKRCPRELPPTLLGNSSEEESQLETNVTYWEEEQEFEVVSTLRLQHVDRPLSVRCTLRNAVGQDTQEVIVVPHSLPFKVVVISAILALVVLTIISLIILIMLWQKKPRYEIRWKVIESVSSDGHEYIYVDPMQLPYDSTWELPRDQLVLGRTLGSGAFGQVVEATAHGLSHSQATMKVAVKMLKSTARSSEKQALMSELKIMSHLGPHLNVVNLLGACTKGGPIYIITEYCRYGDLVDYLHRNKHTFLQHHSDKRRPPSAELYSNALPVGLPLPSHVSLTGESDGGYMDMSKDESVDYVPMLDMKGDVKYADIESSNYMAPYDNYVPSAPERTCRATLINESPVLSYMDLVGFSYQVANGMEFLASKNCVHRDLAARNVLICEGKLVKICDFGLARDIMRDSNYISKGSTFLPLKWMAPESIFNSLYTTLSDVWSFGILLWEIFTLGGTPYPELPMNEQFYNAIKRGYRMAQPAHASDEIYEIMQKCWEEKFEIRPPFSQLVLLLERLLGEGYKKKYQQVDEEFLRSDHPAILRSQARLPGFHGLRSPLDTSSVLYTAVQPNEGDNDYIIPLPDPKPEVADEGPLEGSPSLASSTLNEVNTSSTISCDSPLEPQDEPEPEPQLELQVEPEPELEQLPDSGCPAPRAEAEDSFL
320 wild-type protein kinases (Homo sapiens, UniProt Q16584), sequence (Q16584 whole entry): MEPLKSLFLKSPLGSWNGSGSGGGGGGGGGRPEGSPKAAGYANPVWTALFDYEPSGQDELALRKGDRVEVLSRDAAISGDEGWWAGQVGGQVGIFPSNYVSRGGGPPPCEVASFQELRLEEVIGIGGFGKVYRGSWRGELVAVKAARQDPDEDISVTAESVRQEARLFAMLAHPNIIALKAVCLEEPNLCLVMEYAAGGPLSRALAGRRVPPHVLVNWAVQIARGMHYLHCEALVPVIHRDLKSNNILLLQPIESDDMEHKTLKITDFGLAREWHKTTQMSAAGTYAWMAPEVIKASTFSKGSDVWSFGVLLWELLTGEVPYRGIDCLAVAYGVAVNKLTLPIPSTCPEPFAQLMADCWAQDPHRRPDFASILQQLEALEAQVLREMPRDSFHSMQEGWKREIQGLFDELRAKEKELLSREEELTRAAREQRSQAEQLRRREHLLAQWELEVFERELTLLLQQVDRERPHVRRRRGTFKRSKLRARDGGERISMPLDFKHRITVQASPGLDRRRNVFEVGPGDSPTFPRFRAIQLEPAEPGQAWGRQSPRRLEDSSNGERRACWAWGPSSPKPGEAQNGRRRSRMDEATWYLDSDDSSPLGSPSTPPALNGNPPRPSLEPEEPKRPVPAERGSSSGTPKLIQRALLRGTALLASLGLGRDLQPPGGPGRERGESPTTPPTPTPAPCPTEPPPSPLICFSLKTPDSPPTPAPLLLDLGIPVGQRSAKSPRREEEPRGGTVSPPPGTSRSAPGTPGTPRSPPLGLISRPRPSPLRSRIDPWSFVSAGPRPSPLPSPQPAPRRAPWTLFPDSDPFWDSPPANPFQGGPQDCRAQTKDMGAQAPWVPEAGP
320 wild-type protein kinases (Homo sapiens, UniProt P30291), sequence (P30291 whole entry): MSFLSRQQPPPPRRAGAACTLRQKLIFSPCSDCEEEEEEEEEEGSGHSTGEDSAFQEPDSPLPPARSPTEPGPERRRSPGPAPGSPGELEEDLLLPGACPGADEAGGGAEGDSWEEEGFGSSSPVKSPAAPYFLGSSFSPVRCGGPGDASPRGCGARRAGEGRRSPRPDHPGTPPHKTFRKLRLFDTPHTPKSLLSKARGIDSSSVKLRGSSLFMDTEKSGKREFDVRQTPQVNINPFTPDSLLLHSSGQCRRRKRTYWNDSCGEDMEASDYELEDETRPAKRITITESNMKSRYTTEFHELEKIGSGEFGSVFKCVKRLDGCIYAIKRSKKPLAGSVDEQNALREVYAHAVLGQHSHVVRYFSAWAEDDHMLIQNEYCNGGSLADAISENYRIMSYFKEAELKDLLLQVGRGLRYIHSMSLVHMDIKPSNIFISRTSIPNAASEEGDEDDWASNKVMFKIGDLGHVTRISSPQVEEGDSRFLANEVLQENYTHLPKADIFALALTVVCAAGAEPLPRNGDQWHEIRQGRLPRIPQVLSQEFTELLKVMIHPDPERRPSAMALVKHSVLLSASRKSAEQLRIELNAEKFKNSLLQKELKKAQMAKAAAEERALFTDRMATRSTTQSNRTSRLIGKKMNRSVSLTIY
320 wild-type protein kinases (Homo sapiens, UniProt P49761), sequence (P49761 whole entry): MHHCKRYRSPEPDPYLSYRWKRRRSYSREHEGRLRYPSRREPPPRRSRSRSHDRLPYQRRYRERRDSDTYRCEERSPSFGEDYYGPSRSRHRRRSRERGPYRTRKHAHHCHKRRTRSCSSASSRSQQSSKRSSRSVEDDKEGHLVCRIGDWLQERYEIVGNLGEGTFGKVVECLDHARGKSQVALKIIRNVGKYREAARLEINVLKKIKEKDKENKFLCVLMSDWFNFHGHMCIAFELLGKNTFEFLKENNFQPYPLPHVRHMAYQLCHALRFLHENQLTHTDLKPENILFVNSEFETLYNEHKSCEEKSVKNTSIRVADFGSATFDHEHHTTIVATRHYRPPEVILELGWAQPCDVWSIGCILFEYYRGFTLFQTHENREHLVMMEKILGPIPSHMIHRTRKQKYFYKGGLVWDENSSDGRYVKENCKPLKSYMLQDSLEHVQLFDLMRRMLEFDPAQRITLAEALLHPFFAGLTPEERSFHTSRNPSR
320 wild-type protein kinases (Homo sapiens, UniProt P50613), sequence (P50613 whole entry): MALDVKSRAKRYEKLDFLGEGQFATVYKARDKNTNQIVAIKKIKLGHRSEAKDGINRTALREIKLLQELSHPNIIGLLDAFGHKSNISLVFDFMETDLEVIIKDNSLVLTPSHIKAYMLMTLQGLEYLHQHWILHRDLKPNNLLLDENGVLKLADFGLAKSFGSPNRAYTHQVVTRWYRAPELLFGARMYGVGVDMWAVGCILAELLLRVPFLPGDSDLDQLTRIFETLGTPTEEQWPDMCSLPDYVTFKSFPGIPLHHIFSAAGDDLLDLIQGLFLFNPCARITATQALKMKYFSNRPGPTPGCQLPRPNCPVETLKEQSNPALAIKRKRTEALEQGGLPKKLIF
320 wild-type protein kinases (Homo sapiens, UniProt Q9NYL2), sequence (Q9NYL2 whole entry): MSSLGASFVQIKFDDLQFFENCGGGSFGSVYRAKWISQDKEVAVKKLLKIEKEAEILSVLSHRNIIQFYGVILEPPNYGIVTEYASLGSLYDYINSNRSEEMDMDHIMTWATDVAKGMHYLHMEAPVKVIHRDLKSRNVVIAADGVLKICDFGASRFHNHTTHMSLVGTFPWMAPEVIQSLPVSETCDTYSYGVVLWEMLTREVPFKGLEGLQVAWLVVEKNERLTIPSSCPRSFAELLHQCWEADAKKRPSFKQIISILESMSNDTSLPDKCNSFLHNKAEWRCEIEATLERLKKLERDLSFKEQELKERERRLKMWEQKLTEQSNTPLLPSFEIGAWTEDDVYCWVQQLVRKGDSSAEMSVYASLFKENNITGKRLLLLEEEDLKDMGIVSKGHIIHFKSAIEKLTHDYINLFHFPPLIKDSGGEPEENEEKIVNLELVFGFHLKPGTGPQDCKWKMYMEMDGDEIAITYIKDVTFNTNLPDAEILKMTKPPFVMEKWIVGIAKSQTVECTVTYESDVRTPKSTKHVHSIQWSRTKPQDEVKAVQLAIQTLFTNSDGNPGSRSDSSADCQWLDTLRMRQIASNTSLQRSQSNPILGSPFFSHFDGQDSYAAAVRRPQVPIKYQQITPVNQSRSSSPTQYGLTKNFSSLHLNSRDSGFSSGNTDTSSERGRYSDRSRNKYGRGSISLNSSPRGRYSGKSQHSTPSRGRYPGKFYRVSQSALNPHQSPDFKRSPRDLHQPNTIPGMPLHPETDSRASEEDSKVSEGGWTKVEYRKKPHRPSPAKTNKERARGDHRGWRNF
320 wild-type protein kinases (Homo sapiens, UniProt Q13705), sequence (Q13705 19-512): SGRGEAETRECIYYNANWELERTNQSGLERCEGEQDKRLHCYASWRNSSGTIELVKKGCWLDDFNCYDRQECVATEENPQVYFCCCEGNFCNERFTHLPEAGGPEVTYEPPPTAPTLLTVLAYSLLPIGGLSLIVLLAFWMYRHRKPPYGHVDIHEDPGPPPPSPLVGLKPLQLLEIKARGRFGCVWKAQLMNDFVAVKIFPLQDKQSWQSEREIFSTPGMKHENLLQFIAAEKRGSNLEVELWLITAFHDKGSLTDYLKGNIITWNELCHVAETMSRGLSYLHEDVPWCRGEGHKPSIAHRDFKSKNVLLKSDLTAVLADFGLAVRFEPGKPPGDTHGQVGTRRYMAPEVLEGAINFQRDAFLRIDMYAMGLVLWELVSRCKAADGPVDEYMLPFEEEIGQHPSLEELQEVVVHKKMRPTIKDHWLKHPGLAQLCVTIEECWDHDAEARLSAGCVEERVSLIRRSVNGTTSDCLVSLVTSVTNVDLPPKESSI

| Compound | Residual activity ([1]; CLK3, 1.0E-06 M) | Residual activity ([1]; CLK3, 1.0E-07 M) | Residual activity ([2]; 1.0E-06 M) | Residual activity ([2]; 1.0E-07 M) | Residual activity ([3]; 1.0E-06 M) | Residual activity ([3]; 1.0E-07 M) | Residual activity ([4]; MAP3K11, 1.0E-06 M) | Residual activity ([4]; MAP3K11, 1.0E-07 M) | Residual activity ([5]; NEK2, 1.0E-06 M) | Residual activity ([5]; NEK2, 1.0E-07 M) | Residual activity ([6]; 1.0E-06 M) | Residual activity ([6]; 1.0E-07 M) | Residual activity, WEE1 ([7]; assay conc. 1.0E-06 M) | Residual activity, WEE1 ([7]; assay conc. 1.0E-07 M) | Residual activity ([8]; CDK7/CycH/MAT1, 1.0E-06 M) | Residual activity ([8]; CDK7/CycH/MAT1, 1.0E-07 M) | Residual activity, ZAK ([9]; assay conc. 1.0E-06 M) | Residual activity, ZAK ([9]; assay conc. 1.0E-07 M) | Residual activity, TLK1 ([10]; assay conc. 1.0E-06 M) | Residual activity, TLK1 ([10]; assay conc. 1.0E-07 M) |
| --- | --- | --- | --- | --- | --- | --- | --- | --- | --- | --- | --- | --- | --- | --- | --- | --- | --- | --- | --- | --- |
| C#Cc1cc(Nc2ncnc3cc(I)ccc23)ccc1Cl [Compound 41] | 128 % of control | 146 % of control | 98 % of control | 114 % of control | 84 % of control | 96 % of control | 73 % of control | 75 % of control | 82 % of control | 96 % of control | 84 % of control | 91 % of control | 87 % of control | 112 % of control | 81 % of control | 93 % of control | 85 % of control | 98 % of control | 100 % of control | 110 % of control |
| C#Cc1cc(Nc2ncnc3cc(OC)c(OC)cc23)ccc1Cl [Compound 45] | 133 % of control | 127 % of control | 95 % of control | 107 % of control | 69 % of control | 90 % of control | 59 % of control | 79 % of control | 86 % of control | 92 % of control | 85 % of control | 83 % of control | 76 % of control | 109 % of control | 79 % of control | 74 % of control | 80 % of control | 100 % of control | 108 % of control | 112 % of control |
